Assay results published in US11878049B1, “Mitapivat therapy and modulators of cytochrome P450” (Agios Pharmaceuticals, Inc., priority 2019, dated 2024).
Counter-ions that a name gives are not always drawn.

Legend:
Type in all cases: in vitro ADME
[1] = molecular target: T1, breast cancer resistance protein (BCRP) (Homo sapiens, UniProt Q9UNQ0); experiment: Transporter substrate assessment
T1 sequence (Q9UNQ0 1-655): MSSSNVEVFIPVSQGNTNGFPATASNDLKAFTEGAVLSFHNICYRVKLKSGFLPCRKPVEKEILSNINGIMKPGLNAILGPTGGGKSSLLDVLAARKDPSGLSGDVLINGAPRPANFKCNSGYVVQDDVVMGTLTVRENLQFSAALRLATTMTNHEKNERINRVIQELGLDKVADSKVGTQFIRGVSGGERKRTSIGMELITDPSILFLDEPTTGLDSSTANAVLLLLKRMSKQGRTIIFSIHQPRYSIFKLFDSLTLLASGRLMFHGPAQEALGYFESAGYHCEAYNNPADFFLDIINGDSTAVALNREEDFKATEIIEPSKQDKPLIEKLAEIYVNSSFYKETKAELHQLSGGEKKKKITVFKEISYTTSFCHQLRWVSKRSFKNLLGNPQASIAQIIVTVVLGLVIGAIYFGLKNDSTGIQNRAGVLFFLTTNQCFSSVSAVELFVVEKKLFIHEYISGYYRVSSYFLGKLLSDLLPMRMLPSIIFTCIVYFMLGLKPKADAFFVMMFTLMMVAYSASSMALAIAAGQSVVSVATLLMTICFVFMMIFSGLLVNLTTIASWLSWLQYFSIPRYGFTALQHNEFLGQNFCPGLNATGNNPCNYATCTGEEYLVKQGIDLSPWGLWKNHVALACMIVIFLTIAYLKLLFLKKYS

[2] = molecular target: organic anion transporter (OAT)3 (Homo sapiens, UniProt Q8TCC7); experiment: Transporter inhibition
CYP2C8 = CYP2C8 (Homo sapiens, UniProt P10632); experiment: CYP enzyme inhibition
CYP2C9 = CYP2C9 (Homo sapiens, UniProt P11712); experiment: CYP enzyme inhibition
[3] = molecular target: uridine-5′-diphospho-glucuronosyltransferase (UGT) 1A9 (Homo sapiens, UniProt O60656); experiment: UGT inhibition
CYP2C19 [4] = molecular target: T2, CYP2C19 (Homo sapiens, UniProt P33261); experiment: Metabolism-dependent CYP inhibition
P-gp [5] = molecular target: T3, P-gp (Homo sapiens, UniProt P08183); experiment: Transporter inhibition
[6] = molecular target: organic anion transporting polypeptide (OATP)1B1 (Homo sapiens, UniProt Q9Y6L6); experiment: Transporter inhibition
[7] = molecular target: multidrug resistance-associated protein (MRP)2 (Homo sapiens, UniProt Q92887); experiment: Transporter inhibition
CYP3A4/5 = experiment: CYP enzyme inhibition (testosterone 6β-hydroxylation)
CYP2C19 [8] = molecular target: T2, CYP2C19; experiment: CYP enzyme inhibition
[9] = molecular target: T1, breast cancer resistance protein (BCRP); experiment: Transporter inhibition
P-gp [10] = molecular target: T3, P-gp; experiment: Transporter substrate assessment
human CYP3A4 = experiment: CYP induction
OATP1B3 = OATP1B3 (Homo sapiens, UniProt Q9NPD5); experiment: Transporter inhibition
CYP2D6 = CYP2D6 (Homo sapiens, UniProt P10635); experiment: CYP enzyme inhibition
human CYP2B6 = experiment: CYP induction
[11] = molecular target: bile salts export pump (BSEP) (Homo sapiens, UniProt O95342); experiment: Transporter inhibition
[12] = molecular target: organic cation transporter (OCT)2 (Homo sapiens, UniProt O15244); experiment: Transporter inhibition
MRP3 = MRP3 (Homo sapiens, UniProt O15438); experiment: Transporter inhibition
[13] = molecular target: uridine-5′-diphospho-glucuronosyltransferase (UGT) 1A3 (Homo sapiens, UniProt P35503); experiment: UGT inhibition
OAT1 = OAT1 (Homo sapiens, UniProt Q4U2R8); experiment: Transporter inhibition
CYP3A4 = CYP3A4 (Homo sapiens, UniProt P08684); experiment: Metabolism-dependent CYP inhibition
[14] = molecular target: uridine-5′-diphospho-glucuronosyltransferase (UGT) 1A4 (Homo sapiens, UniProt P22310); experiment: UGT inhibition
Sequence of uridine-5′-diphospho-glucuronosyltransferase (UGT) 1A4 (P22310 29-534): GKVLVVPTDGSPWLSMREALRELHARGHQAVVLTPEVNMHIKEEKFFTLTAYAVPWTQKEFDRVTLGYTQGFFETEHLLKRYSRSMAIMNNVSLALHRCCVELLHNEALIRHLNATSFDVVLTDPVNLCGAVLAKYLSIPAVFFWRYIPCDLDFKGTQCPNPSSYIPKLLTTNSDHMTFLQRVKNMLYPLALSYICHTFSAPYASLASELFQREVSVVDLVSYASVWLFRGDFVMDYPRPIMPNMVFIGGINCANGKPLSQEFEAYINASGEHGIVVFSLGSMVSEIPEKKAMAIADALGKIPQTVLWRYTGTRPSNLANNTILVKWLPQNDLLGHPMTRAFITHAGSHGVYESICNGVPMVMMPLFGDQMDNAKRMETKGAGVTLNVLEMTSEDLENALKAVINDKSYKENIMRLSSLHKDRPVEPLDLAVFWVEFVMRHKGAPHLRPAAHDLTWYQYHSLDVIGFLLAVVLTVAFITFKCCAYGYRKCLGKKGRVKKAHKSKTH

T3 sequence (P08183 whole entry): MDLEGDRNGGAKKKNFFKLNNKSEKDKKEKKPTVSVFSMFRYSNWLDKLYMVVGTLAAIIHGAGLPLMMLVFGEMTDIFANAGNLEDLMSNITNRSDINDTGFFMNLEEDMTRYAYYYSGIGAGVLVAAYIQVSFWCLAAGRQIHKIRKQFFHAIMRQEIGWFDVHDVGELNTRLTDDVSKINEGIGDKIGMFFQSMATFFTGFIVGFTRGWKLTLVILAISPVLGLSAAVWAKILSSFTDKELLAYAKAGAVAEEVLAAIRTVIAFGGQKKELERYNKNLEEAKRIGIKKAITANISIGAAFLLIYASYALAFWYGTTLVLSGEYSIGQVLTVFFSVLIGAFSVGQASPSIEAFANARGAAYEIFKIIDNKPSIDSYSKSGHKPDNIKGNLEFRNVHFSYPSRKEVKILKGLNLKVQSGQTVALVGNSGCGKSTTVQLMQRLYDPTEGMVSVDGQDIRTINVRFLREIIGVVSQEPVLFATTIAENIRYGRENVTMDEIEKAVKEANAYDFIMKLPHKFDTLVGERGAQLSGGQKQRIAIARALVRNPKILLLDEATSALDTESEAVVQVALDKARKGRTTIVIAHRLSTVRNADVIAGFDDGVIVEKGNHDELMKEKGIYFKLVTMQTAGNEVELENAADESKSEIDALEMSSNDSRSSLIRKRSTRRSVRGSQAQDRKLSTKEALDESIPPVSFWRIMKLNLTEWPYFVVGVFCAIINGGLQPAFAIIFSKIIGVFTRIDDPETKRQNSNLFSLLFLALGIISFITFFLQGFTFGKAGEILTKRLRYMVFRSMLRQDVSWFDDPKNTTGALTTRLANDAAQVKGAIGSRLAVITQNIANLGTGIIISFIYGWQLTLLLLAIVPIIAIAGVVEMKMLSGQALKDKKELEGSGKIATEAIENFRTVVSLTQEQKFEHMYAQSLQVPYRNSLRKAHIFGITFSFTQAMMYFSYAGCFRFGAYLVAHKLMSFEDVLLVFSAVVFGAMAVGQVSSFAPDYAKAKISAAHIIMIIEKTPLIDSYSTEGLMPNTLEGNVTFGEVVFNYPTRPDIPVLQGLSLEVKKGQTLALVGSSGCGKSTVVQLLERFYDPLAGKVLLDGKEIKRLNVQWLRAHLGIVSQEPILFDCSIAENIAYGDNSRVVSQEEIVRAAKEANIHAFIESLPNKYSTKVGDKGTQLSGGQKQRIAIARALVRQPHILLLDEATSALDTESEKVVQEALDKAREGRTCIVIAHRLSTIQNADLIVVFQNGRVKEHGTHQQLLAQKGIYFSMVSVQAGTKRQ
T2 sequence (P33261 whole entry): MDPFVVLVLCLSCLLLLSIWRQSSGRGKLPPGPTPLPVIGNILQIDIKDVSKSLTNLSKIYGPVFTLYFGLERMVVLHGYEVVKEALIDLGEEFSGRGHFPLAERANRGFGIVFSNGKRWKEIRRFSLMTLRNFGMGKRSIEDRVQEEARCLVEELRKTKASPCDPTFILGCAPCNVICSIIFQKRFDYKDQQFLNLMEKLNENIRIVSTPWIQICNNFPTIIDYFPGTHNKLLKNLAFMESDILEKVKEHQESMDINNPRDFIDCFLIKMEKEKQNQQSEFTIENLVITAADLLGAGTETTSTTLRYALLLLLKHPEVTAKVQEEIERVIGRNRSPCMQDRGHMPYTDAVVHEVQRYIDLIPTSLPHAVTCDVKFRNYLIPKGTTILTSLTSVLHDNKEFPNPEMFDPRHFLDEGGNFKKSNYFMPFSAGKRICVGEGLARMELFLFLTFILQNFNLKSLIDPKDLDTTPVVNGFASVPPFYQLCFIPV
Sequence of uridine-5′-diphospho-glucuronosyltransferase (UGT) 1A9 (O60656 26-530): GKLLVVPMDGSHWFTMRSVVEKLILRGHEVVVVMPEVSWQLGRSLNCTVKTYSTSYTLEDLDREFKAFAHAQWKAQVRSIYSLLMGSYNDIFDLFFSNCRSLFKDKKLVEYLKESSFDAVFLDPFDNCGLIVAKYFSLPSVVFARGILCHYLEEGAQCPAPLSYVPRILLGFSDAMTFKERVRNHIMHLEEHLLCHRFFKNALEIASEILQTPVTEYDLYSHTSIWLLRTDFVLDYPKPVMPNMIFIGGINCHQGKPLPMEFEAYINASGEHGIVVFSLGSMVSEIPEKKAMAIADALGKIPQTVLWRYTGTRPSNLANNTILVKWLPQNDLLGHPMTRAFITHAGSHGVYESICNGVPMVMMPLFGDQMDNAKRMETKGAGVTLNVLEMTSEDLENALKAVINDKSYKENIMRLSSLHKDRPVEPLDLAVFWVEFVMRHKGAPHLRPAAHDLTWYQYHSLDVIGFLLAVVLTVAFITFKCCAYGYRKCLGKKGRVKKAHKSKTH
Sequence of CYP2C8 (P10632 whole entry): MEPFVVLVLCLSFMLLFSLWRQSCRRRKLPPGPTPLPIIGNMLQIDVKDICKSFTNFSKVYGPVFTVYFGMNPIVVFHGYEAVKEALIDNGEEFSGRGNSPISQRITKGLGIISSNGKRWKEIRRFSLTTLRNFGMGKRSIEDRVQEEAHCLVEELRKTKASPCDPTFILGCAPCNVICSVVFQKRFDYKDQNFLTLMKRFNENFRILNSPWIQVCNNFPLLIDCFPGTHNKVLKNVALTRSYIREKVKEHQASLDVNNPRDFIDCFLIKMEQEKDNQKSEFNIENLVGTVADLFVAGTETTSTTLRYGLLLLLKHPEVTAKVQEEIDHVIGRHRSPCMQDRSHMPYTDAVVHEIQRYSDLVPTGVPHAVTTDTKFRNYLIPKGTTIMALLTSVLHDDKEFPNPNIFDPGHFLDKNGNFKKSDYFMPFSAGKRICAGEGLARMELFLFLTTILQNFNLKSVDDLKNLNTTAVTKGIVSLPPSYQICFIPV
Sequence of organic cation transporter (OCT)2 (O15244 whole entry): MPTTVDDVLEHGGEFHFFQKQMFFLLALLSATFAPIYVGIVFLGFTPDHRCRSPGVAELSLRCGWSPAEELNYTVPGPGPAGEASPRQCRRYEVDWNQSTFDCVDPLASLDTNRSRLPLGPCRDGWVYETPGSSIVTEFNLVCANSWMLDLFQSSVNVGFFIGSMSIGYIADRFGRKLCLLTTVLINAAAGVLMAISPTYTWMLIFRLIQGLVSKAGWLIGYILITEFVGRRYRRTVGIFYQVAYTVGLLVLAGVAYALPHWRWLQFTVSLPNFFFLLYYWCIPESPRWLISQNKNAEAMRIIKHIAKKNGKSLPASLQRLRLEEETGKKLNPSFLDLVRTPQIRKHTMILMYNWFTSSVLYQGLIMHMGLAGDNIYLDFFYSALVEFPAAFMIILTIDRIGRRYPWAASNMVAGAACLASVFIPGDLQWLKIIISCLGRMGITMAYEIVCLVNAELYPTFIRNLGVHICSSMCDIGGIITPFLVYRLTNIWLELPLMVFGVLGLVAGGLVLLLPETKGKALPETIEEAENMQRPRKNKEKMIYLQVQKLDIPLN
Sequence of OAT1 (Q4U2R8 whole entry): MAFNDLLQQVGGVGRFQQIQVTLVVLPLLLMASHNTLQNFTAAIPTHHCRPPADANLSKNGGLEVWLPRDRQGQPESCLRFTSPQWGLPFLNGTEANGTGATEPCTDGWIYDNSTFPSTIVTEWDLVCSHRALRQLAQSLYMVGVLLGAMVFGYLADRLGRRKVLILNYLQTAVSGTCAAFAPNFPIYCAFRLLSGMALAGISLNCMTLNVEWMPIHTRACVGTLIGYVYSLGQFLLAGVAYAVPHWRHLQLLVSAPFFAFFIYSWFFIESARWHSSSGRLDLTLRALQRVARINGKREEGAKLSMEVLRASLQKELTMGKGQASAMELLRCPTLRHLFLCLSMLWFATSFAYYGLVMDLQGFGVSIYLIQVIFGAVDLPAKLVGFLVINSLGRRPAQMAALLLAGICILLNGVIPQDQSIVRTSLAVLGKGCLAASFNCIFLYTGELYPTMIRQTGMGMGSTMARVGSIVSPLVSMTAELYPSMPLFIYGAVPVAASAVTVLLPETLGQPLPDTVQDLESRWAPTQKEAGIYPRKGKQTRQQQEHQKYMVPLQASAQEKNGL
Sequence of CYP2C9 (P11712 whole entry): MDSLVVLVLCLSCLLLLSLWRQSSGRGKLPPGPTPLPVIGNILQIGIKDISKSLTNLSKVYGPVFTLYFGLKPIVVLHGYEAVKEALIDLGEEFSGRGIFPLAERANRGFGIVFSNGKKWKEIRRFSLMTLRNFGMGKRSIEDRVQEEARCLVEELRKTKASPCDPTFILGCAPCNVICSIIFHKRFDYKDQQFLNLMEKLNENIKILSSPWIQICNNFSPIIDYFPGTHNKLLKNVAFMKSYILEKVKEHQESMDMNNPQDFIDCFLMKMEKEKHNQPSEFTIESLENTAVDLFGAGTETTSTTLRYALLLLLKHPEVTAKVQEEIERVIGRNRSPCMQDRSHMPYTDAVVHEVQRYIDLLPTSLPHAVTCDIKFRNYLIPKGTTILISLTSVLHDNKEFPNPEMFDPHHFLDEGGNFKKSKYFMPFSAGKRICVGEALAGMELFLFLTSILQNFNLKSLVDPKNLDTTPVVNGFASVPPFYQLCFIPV

SMILES: O=C(c1ccc(NS(=O)(=O)c2cccc3cccnc23)cc1)N1CCN(CC2CC2)CC1 [Mitapivat sulfate]
- Substrate for BCRP [1]: not for breast cancer resistance protein (BCRP)
- Inhibition of OAT3 [2]: mild inhibitor
- Inhibition of CYP2C8 (CYP2C8): mild inhibitor
- Inhibition of CYP2C9 (CYP2C9): mild inhibitor
- Inhibition of UGT1A9 [3]: mild inhibitor
- Metabolism-dependent inhibition of CYP2C19 (evidence found), reversibility (CYP2C19 [4]): largely reversible
- Inhibitor for P-gp (P-gp [5]): inhibitor
- Inhibition of OATP1B1 [6]: mild inhibitor
- Inhibition of MRP2 [7]: does not appear to be an inhibitor
- Inhibition of CYP3A4/5 (CYP3A4/5): mild inhibitor
- Inhibition of CYP2C19 (CYP2C19 [8]): mild inhibitor
- Inhibitor for BCRP [9]: not for breast cancer resistance protein (BCRP)
- Substrate for P-gp (P-gp [10]): substrate
- Induction of human CYP3A4 (human CYP3A4): potential inducer
- Inhibition of OATP1B3 (OATP1B3): does not appear to be an inhibitor
- Inhibition of CYP2D6 (CYP2D6): mild inhibitor
- Induction of human CYP2B6 (human CYP2B6): potential inducer
- Inhibition of BSEP [11]: mild inhibitor
- Inhibition of OCT2 [12]: mild inhibitor
- Inhibition of MRP3 (MRP3): does not appear to be an inhibitor
- Inhibition of UGT1A3 [13]: mild inhibitor
- Inhibition of OAT1 (OAT1): does not appear to be an inhibitor
- Metabolism-dependent inhibition of CYP3A4 (evidence found), reversibility (CYP3A4): largely irreversible
- Inhibition of UGT1A4 [14]: mild inhibitor
